System: C6 cells
Assay: C6 SRB growth assay
Format: cell-based, rat
Details: Rattus norvegicus, C6; at 25 μM

`Cc1noc(C)c1C(=O)NCc1ccc(C(F)(F)F)cc1` [Compound P22, N-4-trifluoromethlybenzy 3,5-dimethylisoxazole-4-carboxamide] gave an inhibition at 25 µM of about 10%.

Same assay, conditions: Rattus norvegicus, C6; read-out: C6 SRB IC50

Compared with `Cc1noc(C)c1C(=O)NCc1ccc(C(F)(F)F)cc1` [Compound P22, N-4-trifluoromethlybenzy 3,5-dimethylisoxazole-4-carboxamide], `CC(O)=C(C#N)C(=O)NCc1ccc(C(F)(F)F)cc1` [Compound P24, 1-trifluorometnlybenzylaminocarbonly-1-cyano-2-hydroxy propene] is lower in IC50: over 25 µM for the first, 14 µM for the second.

`N#CC(C(=O)N1CCOCC1)C(=S)Nc1ccccc1Cl` (stereo not shown) [Compound P19, N-2-chlorophenyl (2-cyano-2-N-morpholinocarbonyl) thioacetamide] showed an IC50 of over 50 µM.

Target: PDGFR (Homo sapiens, UniProt P09619)
Assay: PDGF-stimulated receptor phosphorylation in U1242 cells, ELISA
Format: cell-based
Set-up: U1242 (PDGF-β receptor); host or cells: U1242 MG glioma cells
Details: not given
Protocol: For ELISA assays, cells were grown to 80-90% confluency in growth medium and seeded in 96-well tissue culture plates in 0.5% serum at 25,000 to 30,000 cells per well. After overnight incubation in 0.5% serum-containingmedium, cells were changed to serum-free medium and treated with test compound for 2 hr in a 5% CO2, 37° C. incubator. Cells were then stimulated with ligand for 5-10 min followed by lysis with HNTG (20 mM Hepes, 150 mM NaCl, 10% glycerol, 5 mM EDTA, 5 mM Na3 VO4 0.2% Triton X-100, and 2 mM NaPyr). […] Lysates were incubated with shaking for 1 hr at room temperature. The plates were washed with TBST four times and then incubated with polyclonol anti-phosphotyrosine antibody at room temperature for 30 min. Excess anti-phosphotyrosine antibody was removed by rinsing the plate with TBST four times. Goat anti-rabbit IgG antibody was added to the ELISA plate for 30 min at room temperature followed by rinsing with TBST four more times.
U1242 MG cells were plated in 96-well plates at a concentration of 5×10^4 cells/well in cultured media containing 0.5% FBS. The cells were incubated for 24 hours. The cells were then treated with a particular compound for 2 hours followed by the addition of 100 ng/ml PDGF-BB and incubation for 10 minutes.
Cells were lysed in 0.2 M Hepes, 0.15 M NaCl, 10% V/V glycerol, 0.04% Triton X-100, 5 mM EDTA, 5 MM Na^+ vanadate and […] Na^+ pyrophosphate. Cell lysates were then added to an ELISA plate coated with an anti-PDGF receptor antibody (Genzyme). ELISA plates were coated at […] of antibody/well in […] of PBS for 18 hours at 4° C. prior to the addition of the lysate.
The lysate was incubated in the coated plates for 1 hour and then washed four times in TBST (35 mM Tris-HCl pH 7.0, 0.15 M NaCl, 0.1% Triton X-100). Anti-phosphotyrosine antibody ([…] in PBS) was added and the mixture was incubated for 30 minutes at room temperature. The wells were then washed four times in TBST, a secondary antibody conjugated to POD (TAGO) was added to each well, and the treated wells were incubated for 30 minutes at room temperature. The wells were then washed four times in TBST, ABTS/H2 O2 solution was added to each well and the wells were incubated for two minutes. Absorbance was then measured at 410 nm.

Sequence of PDGFR (P09619 33-1106): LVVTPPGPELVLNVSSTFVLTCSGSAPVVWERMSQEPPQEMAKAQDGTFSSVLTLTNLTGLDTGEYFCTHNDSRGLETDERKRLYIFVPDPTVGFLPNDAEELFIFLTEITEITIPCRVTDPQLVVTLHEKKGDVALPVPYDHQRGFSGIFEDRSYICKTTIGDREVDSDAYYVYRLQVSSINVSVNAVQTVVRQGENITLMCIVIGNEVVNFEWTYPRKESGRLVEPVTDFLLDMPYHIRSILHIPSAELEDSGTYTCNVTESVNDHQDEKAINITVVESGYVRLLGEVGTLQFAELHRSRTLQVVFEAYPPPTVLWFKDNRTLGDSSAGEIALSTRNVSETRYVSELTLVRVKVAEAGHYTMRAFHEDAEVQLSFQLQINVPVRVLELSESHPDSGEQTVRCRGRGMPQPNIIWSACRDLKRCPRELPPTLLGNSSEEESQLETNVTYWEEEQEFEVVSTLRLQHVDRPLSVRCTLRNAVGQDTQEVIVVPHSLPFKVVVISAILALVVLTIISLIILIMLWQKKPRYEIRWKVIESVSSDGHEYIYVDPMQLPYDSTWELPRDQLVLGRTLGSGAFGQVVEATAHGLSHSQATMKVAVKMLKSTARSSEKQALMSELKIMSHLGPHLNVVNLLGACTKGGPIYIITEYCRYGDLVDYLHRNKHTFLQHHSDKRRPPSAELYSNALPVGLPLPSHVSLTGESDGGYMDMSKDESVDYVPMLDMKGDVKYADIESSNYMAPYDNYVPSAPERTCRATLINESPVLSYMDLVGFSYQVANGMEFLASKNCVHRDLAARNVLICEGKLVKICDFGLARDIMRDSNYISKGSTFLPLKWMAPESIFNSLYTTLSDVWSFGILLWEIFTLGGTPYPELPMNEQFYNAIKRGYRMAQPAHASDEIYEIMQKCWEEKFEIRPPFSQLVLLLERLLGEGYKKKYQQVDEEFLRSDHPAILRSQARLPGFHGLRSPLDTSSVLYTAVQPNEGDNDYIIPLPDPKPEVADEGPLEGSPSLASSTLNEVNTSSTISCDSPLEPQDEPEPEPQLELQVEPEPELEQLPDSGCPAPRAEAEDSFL

For `N#CC(=Cc1c[nH]c2ccccc12)C(N)=C(C#N)C#N` [Compound D12], the IC50 was 60 µM.

Same assay, conditions: 100 ng/ml PDGF-BB; read-out: ELISA P-TYR U1242 IC50

`N#CC(C(=O)Nc1ccc(C(F)(F)F)cc1)=C(O)c1ccc(F)cc1` [Compound B12, 2-Propenamide, 2-cyano-3-hydroxy-3-(4-fluorophenyl)-N-[(4-trifluoromethyl)phenyl]] and `N#CC(C(=O)Nc1ccc(C(F)(F)F)cc1)=C(O)Cc1ccccc1` [Compound B17, 2-Butenamide, 2-cyano-3-hydroxy-4-phenyl-N-[(4-trifluoromethyl)phenyl]] are within 1.5-fold of each other in IC50: 100 µM for the first, 125 µM for the second.

`O=c1c2ccccc2nc2n1CCOC2=Cc1ccc(O)c(O)c1` [Compound F11] and `O=c1c2ccccc2nc2n1CCOC2=Cc1cccc(O)c1` [Compound F12] are within 1.5-fold of each other in IC50: 100 µM for the first, 70 µM for the second.

First: COc1ccccc1NC(=O)C(=O)NN=Cc1ccc(O)c(O)c1 [Compound E13]
Second: O=C(NN=Cc1ccc(O)c(O)c1)C(=O)Nc1cccc(O)c1 [Compound E11]
The IC50 of the first is higher: over 100 µM for the first, 90 µM for the second.

`CC(NC(=O)C(C#N)=Cc1ccc2[nH]ccc2c1)c1ccccc1` (single isomer, unassigned) [Compound I10] and `N#CC(C(=O)Nc1ccc(C(F)(F)F)cc1)=C(O)C(c1ccccc1)c1ccccc1` [Compound B19, 2-Butenamide, 2-cyano-3-hydroxy-4,4-diphenyl-N-[(4-trifluoromethyl)phenyl]] are within 1.5-fold of each other in IC50: 90 µM for the first, 100 µM for the second.

Going from `CN(C)CCCn1cc(C=C(C#N)C(=O)c2ccc(O)c(O)c2)c2ccccc21` [Compound D16] to `N#CCCn1cc(C=C(C#N)C(=O)c2ccc(O)c(O)c2)c2ccccc21` [Compound D17], the IC50 rises from 50 µM to over 100 µM. The first is the more potent here.

`CC(O)=C(C#N)C(=O)Nc1ccc([N+](=O)[O-])cc1` [Compound B10] and `CC(C)CC(O)=C(C#N)C(=O)Nc1ccc(C(F)(F)F)cc1` [Compound B18, 2-Hexeneamide, 2-cyano-3-hydroxy-5-methyl-N-[(4-trifluoromethyl)phenyl]] are within 1.5-fold of each other in IC50: 180 µM for the first, 160 µM for the second.

Going from `COc1cc2nc(-c3ccccc3)cnc2cc1O` [Compound G17] to `Oc1cc2ncc(-c3ccccc3)nc2cc1O` [Compound G20], the IC50 rises from 100 µM to over 100 µM. The first is the more potent here.

`Cc1ccc2ncc(-c3ccccc3)nc2c1` [Compound G19] and `c1csc(-c2cnc3ccccc3n2)c1` [Compound G15] are within 1.5-fold of each other in IC50: 90 µM for the first, 100 µM for the second.

Going from `CN(C)c1ccc(NC(=O)C(=O)NN=Cc2ccc(O)c(O)c2)cc1` [Compound E10] to `O=C(NN=Cc1ccc(O)cc1)C(=O)Nc1cccc([N+](=O)[O-])c1` [Compound E16], the IC50 rises from 45 µM to 125 µM (2.8-fold).

First: N#CC(=Cc1ccc(O)c(O)c1)c1[nH]nc(N)c1C#N [Compound C11]
Second: N#CC(C(=O)Nc1ccc(C(F)(F)F)cc1)=C(O)c1c(F)c(F)c(F)c(F)c1F [Compound B15, 2-Propenamide, 2-cyano-3-hydroxy-3-(pentafluorophenyl)-N-[(4-trifluoromethyl)phenyl]]
The IC50 of the first is 1.7-fold lower: 70 µM for the first, 120 µM for the second.

`O=C(NN=Cc1ccccc1O)C(=O)Nc1cccc(O)c1` [Compound E12] and `CC1(C)C(C(O)=C(C#N)C(=O)Nc2ccc(C(F)(F)F)cc2)C1(C)C` [Compound B14, 2-cyano-3-hydroxy-3-(2,2,3,3-tetramethylcyclopropyl)-propanol-4-(trifluoromethyl)anilide] are the same in IC50: 180 µM for the first, 180 µM for the second.

Molecule `N#CC(C(=O)Nc1ccc(C(F)(F)F)cc1)=C(O)C1CCCCC1` [Compound B13, 2-Propenamide, 2-cyano-3-hydroxy-3-cyclohexyl-N-[(4-trifluoromethyl)phenyl]] has an IC50 of 180 µM.
